Test results published in PMC9882606, “Rationally designed inhibitors of the Musashi protein-RNA interaction by hotspot mimicry” (Research Square, 2023).

Biological target: MSI2 (Homo sapiens, UniProt Q96DH6)
Assay: mRNA immunoprecipitation (RIP) with anti-MSI2 in PC9 cells
Assay type: cell-based
Set-up: endogenous in cells; host or cells: PC9
Details: PC9, 10 μM, 8 hours
Description: Among previously described targets of MSI2 are PTP4A, SMAD3, EGFR, and MSI2 itself. To test for disruption of MSI2 with these cognate mRNAs upon treatment with R12–8–44–3, we used mRNA immunoprecipitation (RIP): we used an anti-MSI2 antibody to immunoprecipitate MSI2, then reverse transcribed and analyzed by qPCR to determine the amount of each specific mRNA that was bound to MSI2. As an important control to ensure that the resulting mRNA was indeed brought down by MSI2, we additionally verified that using a negative control antibody (instead of anti-MSI2) brought with it 100-fold less of each target mRNA (Figure S10). As a separate negative control, GAPDH mRNA was also quantified in the context of these studies (since GAPDH is not thought to be a target of MSI2).
PC9 cells were then treated with 10 μM of each compound for 8 hours and then analyzed by RIP.
Figure 7: Cellular characterization of MSI2 inhibition by R12–8–44–3. (A) Quantification of mRNA immunoprecipitation (RIP) results. […] After immunoprecipitation with anti-MSI2, mRNA targets were quantified. The amount of each target mRNA in the pulldown was calculated relative to the input, and results from all targets were normalized to PTP4A1. […] Cells were treated with indicated compounds at two concentrations (5 μM and 20 μM) for 48 hours, then protein levels of relevant MSI2 targets were determined (EGFR, SMAD3, and MSI2). […]

Chain of MSI2 (Q96DH6 whole entry): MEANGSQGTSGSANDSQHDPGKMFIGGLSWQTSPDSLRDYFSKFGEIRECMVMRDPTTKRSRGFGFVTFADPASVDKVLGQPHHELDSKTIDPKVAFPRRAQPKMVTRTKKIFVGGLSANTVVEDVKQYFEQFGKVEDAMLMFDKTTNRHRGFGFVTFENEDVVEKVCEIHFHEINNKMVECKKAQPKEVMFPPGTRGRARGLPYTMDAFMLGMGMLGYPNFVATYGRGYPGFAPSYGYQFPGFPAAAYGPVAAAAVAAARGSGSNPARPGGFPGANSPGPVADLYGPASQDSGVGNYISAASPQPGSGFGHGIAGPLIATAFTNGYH

Cc1cc(C(=O)OCc2nc(N)c3c(C)c(C)sc3n2)c(N)cc1F [R12–8–44–3]
amount of target mRNA associated with MSI2 (PTP4A, SMAD3, EGFR, MSI2): statistically significant reduction in the amount of mRNA associated with MSI2
